{"source": "ChEMBL document CHEMBL5375995", "about": "“Discovery and Mechanistic Study of Novel Mycobacterium tuberculosis ClpP1P2 Inhibitors” (J Med Chem, 2023)", "key": {"ClpP1P2 [1]": {"molecular_target": "T1, ClpP1P2 (Mycobacterium tuberculosis (strain ATCC 25618 / H37Rv), UniProt P9WPC3+P9WPC5)", "T1 sequence (P9WPC5 whole entry, the tested form may be a part)": "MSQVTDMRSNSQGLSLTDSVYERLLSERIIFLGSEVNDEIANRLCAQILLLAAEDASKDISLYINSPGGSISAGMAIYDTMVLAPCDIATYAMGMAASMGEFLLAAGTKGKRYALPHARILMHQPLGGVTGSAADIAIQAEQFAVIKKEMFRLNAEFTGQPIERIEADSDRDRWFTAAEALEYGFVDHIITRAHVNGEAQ", "T1 sequence (P9WPC3 whole entry, the tested form may be a part)": "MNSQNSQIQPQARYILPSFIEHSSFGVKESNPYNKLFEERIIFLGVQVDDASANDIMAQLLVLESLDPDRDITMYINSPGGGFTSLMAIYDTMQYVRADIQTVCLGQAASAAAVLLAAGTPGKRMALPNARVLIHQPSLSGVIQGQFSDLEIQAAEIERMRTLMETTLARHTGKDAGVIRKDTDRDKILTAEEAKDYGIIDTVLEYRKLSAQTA", "assay": "Inhibition of N-terminal His6-SUMO-tagged Mtb ClpP1 (7 to 200 residues)/ClpP2 (13 to 214 residues) complex expressed in Escherichia coli BL21(DE3) using Z-Gly-Gly-Leu-AMC as substrate measured for 60 mins in presence of Bz-LL by fluorescence based assay"}, "ClpP1P2 [2]": {"molecular_target": "T1, ClpP1P2", "assay": "Inhibition of N-terminal His6-SUMO-tagged Mtb ClpP1 (7 to 200 residues)/ClpP2 (13 to 214 residues) complex expressed in Escherichia coli BL21(DE3) using FITC-casein as substrate measured for 1 hr in presence of Bz-LL/ATP by fluorescence based assay"}, "[3]": {"molecular_target": "ATP-dependent Clp protease ATP-binding subunit ClpC1 (Mycobacterium tuberculosis) (UniProt P9WPC9)", "sequence (P9WPC9 whole entry)": "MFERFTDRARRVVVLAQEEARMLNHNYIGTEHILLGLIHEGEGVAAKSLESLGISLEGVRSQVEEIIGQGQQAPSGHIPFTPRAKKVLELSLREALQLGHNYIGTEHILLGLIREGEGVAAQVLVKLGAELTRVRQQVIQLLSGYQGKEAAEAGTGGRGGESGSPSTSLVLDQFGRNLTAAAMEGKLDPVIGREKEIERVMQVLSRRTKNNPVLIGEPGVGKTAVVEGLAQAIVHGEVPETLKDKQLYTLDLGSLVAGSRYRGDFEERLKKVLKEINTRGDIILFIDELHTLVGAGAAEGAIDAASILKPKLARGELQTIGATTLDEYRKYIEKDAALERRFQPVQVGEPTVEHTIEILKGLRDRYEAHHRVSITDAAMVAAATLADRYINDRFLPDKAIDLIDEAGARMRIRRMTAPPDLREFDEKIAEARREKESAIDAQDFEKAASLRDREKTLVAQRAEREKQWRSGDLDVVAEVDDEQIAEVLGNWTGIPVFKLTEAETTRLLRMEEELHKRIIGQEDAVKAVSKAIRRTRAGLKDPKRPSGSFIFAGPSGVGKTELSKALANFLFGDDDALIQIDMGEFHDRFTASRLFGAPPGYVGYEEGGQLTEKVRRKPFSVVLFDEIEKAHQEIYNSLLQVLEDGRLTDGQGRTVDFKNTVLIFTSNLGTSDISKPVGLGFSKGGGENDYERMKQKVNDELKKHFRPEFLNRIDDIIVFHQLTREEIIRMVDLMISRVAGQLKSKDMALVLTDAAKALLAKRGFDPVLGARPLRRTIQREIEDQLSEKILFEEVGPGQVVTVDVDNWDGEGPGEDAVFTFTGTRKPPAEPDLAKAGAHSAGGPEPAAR", "assay": "Inhibition of N-terminal His6-tagged full-length Mtb ClpC1 ATPase activity expressed in Escherichia coli BL21(DE3) at 100 uM in presence of PK/LDH/ATP/NADH by spectrophotometry"}, "[4]": {"molecular_target": "ATP-dependent Clp protease ATP-binding subunit ClpC1 (Mycobacterium tuberculosis) (UniProt P9WPC9)", "assay": "Inhibition of N-terminal His6-tagged full-length Mtb ClpC1 creatine kinase activity expressed in Escherichia coli BL21(DE3) using creatine phosphate as substrate at 100 uM preincubated for 10 mins followed by substrate addition measured after 10 mins in presence of ADP by Kinase-Glo assay", "settings": "time 20.0 min"}, "ClpP1P2 [5]": {"molecular_target": "T1, ClpP1P2", "assay": "Binding affinity to N-terminal His6-SUMO-tagged Mtb ClpP1 (7 to 200 residues)/ClpP2 (13 to 214 residues) complex expressed in Escherichia coli BL21(DE3) assessed as increase in thermal stability measured at 25 to 110 degreeC in presence of Bz-LL by DSF assay"}, "[6]": {"tested_on": "Mycobacterium tuberculosis", "assay": "Antibacterial activity against Mycobacterium tuberculosis H37Ra assessed as bacterial growth inhibition incubated for 24 hrs by broth microdilution method", "type": "functional"}, "[7]": {"tested_on": "Mycolicibacterium smegmatis", "assay": "Antibacterial activity against wild-type Mycobacterium smegmatis mc2 155 assessed as bacterial growth inhibition incubated for 2 days by Alamar blue staining based assay", "type": "functional", "settings": "mc2 155, 48 h, time 2 day"}, "[8]": {"molecular_target": "T2, ClpP1P2 (Mycobacterium tuberculosis (strain ATCC 25618 / H37Rv)) (UniProt P9WPC5+P9WPC3)", "assay": "Inhibition of N-terminal His6-SUMO-tagged Mtb ClpP1 (7 to 200 residues)/ClpP2 (13 to 214 residues) complex expressed in Escherichia coli BL21(DE3) using GFP-ssrA as substrate measured for 1 hr in presence of Bz-LL/ATP by fluorescence based assay"}, "ClpP1P2 [9]": {"molecular_target": "T1, ClpP1P2", "assay": "Inhibition of N-terminal His6-SUMO-tagged Mtb ClpP1 (7 to 200 residues)/ClpP2 (13 to 214 residues) complex expressed in Escherichia coli BL21(DE3) using GFP-ssrA as substrate incubated for 3 hrs in presence of Bz-LL/ATP by Coomassie blue staining based assay"}, "[10]": {"assay": "Inhibition of Staphylococcus aureus […] complex expressed in Escherichia coli BL21(DE3) using GFP-ssrA as substrate incubated for 3 hrs in presence of Bz-LL/ATP/ONC212 by Coomassie blue staining based assay"}, "[11]": {"assay": "(§1) Selectivity index, ratio of IC50 for full-length human ClpP complex ([…]) expressed in Escherichia coli BL21(DE3) using Ac-WLA-AMC as substrate to IC50 for N-terminal His6-SUMO-tagged Mtb ClpP1 (7 to 200 residues)/ClpP2 (13 to 214 residues) complex expressed in Escherichia coli BL21(DE3) using Z-Gly-Gly-Leu-AMC as substrate"}, "[12]": {"assay": "as §1, with “FITC-casein” for “Ac-WLA-AMC”"}, "[13]": {"molecular_target": "T2, ClpP1P2 (Mycobacterium tuberculosis (strain ATCC 25618 / H37Rv))", "assay": "Binding affinity to N-terminal His6-SUMO-tagged Mtb ClpP1 (7 to 200 residues) expressed in Escherichia coli BL21(DE3) assessed as reduction in fluorescence intensity at 25 to 100 uM incubated for 30 mins in presence of Bz-LL by spectrophotometry relative to control", "set-up": "scale not given: the % may be the effect or the level left", "settings": "dose 25-100 µM"}, "[14]": {"tested_on": "Mycobacterium tuberculosis", "assay": "Binding affinity to N-terminal His6-SUMO-tagged Mtb ClpP1 (7 to 200 residues)/ClpP2 (13 to 214 residues) complex expressed in Escherichia coli BL21(DE3) assessed as reduction in fluorescence intensity at 25 to 100 uM incubated for 30 mins in presence of Bz-LL by spectrophotometry relative to control", "set-up": "scale not given: the % may be the effect or the level left", "settings": "dose 25-100 µM"}, "[15]": {"assay": "Inhibition of N-terminal His6-SUMO-tagged Mycobacterium smegmatis ClpP1 (3 to 200 residues)/P2 (17 to 218 residues) expressed in Escherichia coli BL21(DE3) using Z-Gly-Gly-Leu-AM as substrate measured for 60 mins in presence of Bz-LL by fluorescence based assay", "set-up": "species or system Mycolicibacterium smegmatis"}, "[16]": {"assay": "Inhibition of N-terminal His6-SUMO-tagged Mycobacterium smegmatis ClpP1 (3 to 200 residues)/P2 (17 to 218 residues) expressed in Escherichia coli BL21(DE3)/C1 using Z-Gly-Gly-Leu-AM as substrate measured for 60 mins in presence of Bz-LL by fluorescence based assay", "set-up": "species or system Mycolicibacterium smegmatis"}, "[17]": {"tested_on": "Mycolicibacterium smegmatis", "assay": "Antibacterial activity against Mycobacterium smegmatis mc2 155 harboring ClpX knockout assessed as bacterial growth inhibition incubated for 2 days by Alamar blue staining based assay", "type": "functional", "settings": "mc2 155, 48 h, time 2 day"}, "[18]": {"tested_on": "Mycolicibacterium smegmatis", "assay": "Antibacterial activity against Mycobacterium smegmatis mc2 155 harboring ClpC1 knockout assessed as bacterial growth inhibition incubated for 2 days by Alamar blue staining based assay", "type": "functional", "settings": "mc2 155, 48 h, time 2 day"}, "[19]": {"tested_on": "Mycolicibacterium smegmatis", "assay": "Antibacterial activity against wild-type Mycobacterium smegmatis mc2 155 assessed as bacterial growth inhibition upto 512 uM incubated for 2 days in presence of ATc by Alamar blue staining based assay", "type": "functional, organism-based", "settings": "time 2.0 day"}, "[20]": {"tested_on": "Mycolicibacterium smegmatis", "assay": "Antibacterial activity against wild-type Mycobacterium smegmatis mc2 155 harboring ClpP-tetoff mutant assessed as bacterial growth inhibition upto 512 uM incubated for 2 days in presence of ATc by Alamar blue staining based assay", "type": "functional, organism-based", "settings": "time 2.0 day"}}, "note": "Active and inactive are the calls of the source. The rule behind the calls is not given here."}
{"smiles": "COc1cc2c(Oc3ccc4[nH]c(C)cc4c3F)ncnc2cc1OCCCN1CCC(c2ccc(C(N)=O)cc2)CC1", "values": [{"measurement": "IC50", "setting": "ClpP1P2 [1]", "value": 2.6, "unit": "µM"}, {"measurement": "IC50", "setting": "ClpP1P2 [2]", "value": 8.9, "unit": "µM"}, {"measurement": "inhibition", "setting": "[3]", "value": "inactive"}, {"measurement": "inhibition", "setting": "[4]", "value": "inactive"}, {"measurement": "EC50", "setting": "ClpP1P2 [5]", "value": 12.1, "unit": "µM"}, {"measurement": "MIC", "setting": "[6]", "value": 12.5, "unit": "µM"}, {"measurement": "MIC", "setting": "[7]", "value": "> 439", "unit": "µg/mL"}, {"measurement": "inhibition", "setting": "[8]", "value": "Active"}, {"measurement": "IC50", "setting": "ClpP1P2 [9]", "value": "> 100", "unit": "µM"}, {"measurement": "IC50", "setting": "[10]", "value": 193, "unit": "µM"}, {"measurement": "Ratio IC50", "setting": "[11]", "value": 12.1}, {"measurement": "Ratio IC50", "setting": "[12]", "value": 18.4}, {"measurement": "Activity", "setting": "[13]", "value": 10, "unit": "%"}, {"measurement": "Activity", "setting": "[14]", "value": 60, "unit": "%"}, {"measurement": "IC50", "setting": "[15]", "value": 1.8, "unit": "µM"}, {"measurement": "IC50", "setting": "[16]", "value": 22.1, "unit": "µM"}, {"measurement": "MIC", "setting": "[17]", "value": 85.7, "unit": "µg/mL"}, {"measurement": "MIC", "setting": "[18]", "value": 42.8, "unit": "µg/mL"}, {"measurement": "growth inhibition (GI)", "setting": "[19]", "value": "Active"}, {"measurement": "growth inhibition (GI)", "setting": "[20]", "value": "Active"}]}
